# Experimental data taken from patent US20210284618A1, “FURANOCHALCONES AS INHIBITORS OF CYP1A1, CYP1A2 AND CYP1B1 FOR CANCER CHEMOPREVENTION” (Council of Scientific & Industrial Research, priority 2016, published 2021).
# Key:
# CYP1A1 [1] = molecular target: T1, CYP1A1 (Homo sapiens, UniProt P04798); assay: In-vitro CYP450 1A1 enzyme inhibition in Saccharosomes; format: biochemical; conditions: for inhibition at 20 min, 10 μM: human, Saccharosomes containing CYP1A1, pH 7.4, probe ethoxyresorufin (5 μM), % inhibition of CYP1A1 in Saccharosomes at 10 μM; for inhibition at 20 min, 10 μM / % inhibition of CYP1A1 in Saccharosomes at 10 μM: 10 μM test compound, 5 μM ethoxyresorufin
# T1 construct: host or cells: yeast microsomes (Saccharosomes)
# T1 sequence (P04798 1-512): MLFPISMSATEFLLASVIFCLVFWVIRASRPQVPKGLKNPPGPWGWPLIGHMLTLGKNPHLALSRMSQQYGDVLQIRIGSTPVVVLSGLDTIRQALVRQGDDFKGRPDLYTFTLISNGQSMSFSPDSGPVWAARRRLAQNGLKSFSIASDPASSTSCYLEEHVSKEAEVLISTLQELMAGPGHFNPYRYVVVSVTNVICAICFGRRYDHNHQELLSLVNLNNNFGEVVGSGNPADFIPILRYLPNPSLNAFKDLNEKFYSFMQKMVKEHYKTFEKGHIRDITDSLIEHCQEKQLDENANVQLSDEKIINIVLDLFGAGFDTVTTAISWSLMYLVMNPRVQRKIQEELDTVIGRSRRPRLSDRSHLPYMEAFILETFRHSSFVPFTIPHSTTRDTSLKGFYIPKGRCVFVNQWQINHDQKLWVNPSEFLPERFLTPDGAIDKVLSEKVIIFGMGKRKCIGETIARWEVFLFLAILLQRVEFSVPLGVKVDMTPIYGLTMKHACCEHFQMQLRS
# Experimental: Example 23. In-vitro CYP450 1A1 enzyme inhibition in Saccharosomes™: The screening method utilizes 384-well microplates to rapidly ascertain relative percentage inhibition of CYP1A1 by a library of compounds. Each reaction was performed in black, clear-bottomed 384-well microplates. A reaction volume of 50 μl comprised of 0.5 pmol of the cytochrome P450 CYP1A1 (Saccharosomes), 5 μM of ethoxyresorufin substrate (which contributes 0.05% DMSO to the well), 10 μM of potential inhibitor test article (which contributes 0.5% DMSO to the well), A P450 reductase NADPH regenerating system (1.3 mM NADP+, 3.3 mM glucose-6-0.02 units phosphate and glucose-6-Phosphate dehydrogenase), potassium phosphate buffer (final well concentration 100 mM, pH 7.4) and water. Very small quantities of magnesium chloride and sodium citrate are added to the NADPH regenerating system, in line with standard published protocols. The potential inhibitor (test article) was pre-incubated with CYP1A1 of at least 20 minutes at 30° C. After this period, the remainder of the reagents required in the assay was added to initiate the process. The reaction mixture was incubated for another 20 minutes at 30° C. The reaction was stopped by adding an 80% acetonitrile, 20% 0.5 M Tris solution. The reactions were monitored using the Biotek Synergy HT plate reader by measuring the endpoint reaction at Excitation 530/(25 bandwidth) & Emission 590/(20 bandwidth) using a gain/sensitivity setting of 60. The mean of the quadruplicates of the negative control (solvent inactivated CYP1A1) was deducted from the mean of potential inhibitor (test article) samples. The percentage was then derived relative to the mean of the wells without inhibitor.
# (§1) Example 25. IC50 determination for best compound against CYP1A1, CYP1B1 and other CYPs in Saccharosomes. Compounds were serially diluted to six different concentrations with 10% DMSO in a Sero-Well white microplate. The experiment was performed in a similar way as described above in examples 23 and 24.
# CYP1B1 = molecular target: T2, CYP1B1 (Homo sapiens, UniProt Q16678); assay: In-vitro CYP450 1B1 enzyme inhibition in Saccharosomes; format: biochemical; set-up: purchased CYP Design Ltd; host or cells: yeast microsomes (Saccharosomes); conditions: 10 μM test compound, 7-ethoxyresorufin; for inhibition at 10 μM: human, Saccharosomes (yeast-derived) with recombinant CYP1B1, probe 7-ethoxyresorufin (5 μl of 0.1 mM), % inhibition of CYP1B1 in Saccharosomes at 10 μM
# T2 sequence (Q16678 1-543): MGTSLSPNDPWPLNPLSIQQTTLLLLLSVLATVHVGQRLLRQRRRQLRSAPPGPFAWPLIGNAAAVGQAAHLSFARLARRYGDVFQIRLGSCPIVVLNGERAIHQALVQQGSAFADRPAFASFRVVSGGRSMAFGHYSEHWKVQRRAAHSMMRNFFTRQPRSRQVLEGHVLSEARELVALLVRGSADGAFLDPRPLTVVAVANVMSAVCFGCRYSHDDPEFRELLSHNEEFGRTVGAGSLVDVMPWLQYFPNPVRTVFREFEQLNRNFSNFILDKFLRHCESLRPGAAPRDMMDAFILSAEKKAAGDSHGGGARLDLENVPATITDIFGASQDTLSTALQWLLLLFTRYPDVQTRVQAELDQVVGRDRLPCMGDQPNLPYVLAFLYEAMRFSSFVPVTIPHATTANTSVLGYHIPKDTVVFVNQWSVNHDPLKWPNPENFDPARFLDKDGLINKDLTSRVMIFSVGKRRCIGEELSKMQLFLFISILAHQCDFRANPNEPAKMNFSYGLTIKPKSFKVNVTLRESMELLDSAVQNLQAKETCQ
# Experimental: Example 24. In-vitro CYP450 1B1 enzyme inhibition in Saccharosomes™: Regenerating system consists of: 5 μl Solution A (183 mg of NADP++183 mg of glucose-6-phosphate+654 μl of 1.0 M magnesium chloride solution+9.15 ml of sterile ultra-pure water)+1 μl Solution B (250 Units of glucose-6-phosphate dehydrogenase+6.25 ml of 5 mM sodium citrate; mixed in a tube and made up to 10 ml with sterile ultra-pure water)+39 μl 0.2 M Kpi (0.6 ml of 1.0M K2HPO4+9.4 ml of 1.0 M KH2PO4 were mixed and made up to 50 ml with sterile ultra-pure water)+5 μl potential inhibitory compound.
# as §1
# CYP1A1 [2] = molecular target: T1, CYP1A1; assay: CYP1A1 inhibition in HEK293 cells transfected with pcDNA3.1/CYP1A1 (live cells); format: cell-based; conditions: for inhibition at 10 μM: human, HEK293 cells transfected with pcDNA3.1/CYP1A1 (live cells), probe EROD (5 μM), % inhibition of CYP1A1 in HEK293 cells at 10 μM; for inhibition at 10 μM / % inhibition of CYP1A1 in HEK293 cells at 10 μM: 5 μM EROD
# Experimental: Example 26. In-vitro CYP450 inhibition in HEK293 cells transfected with pcDNA3.1/CYP1A1 against 5 μM EROD. […] The HEK293 cells used here was procured from ‘European Collection of Authenticated Cell Cultures’ (catalog number. ECACC 85120602).
SMILES,"inhibition at 20 min, 10 μM (CYP1A1 [1]) [%]",inhibition at 10 μM (CYP1B1) [%],melting point [°C],inhibition at 10 μM (CYP1A1 [2]) [%],also measured
"COc1c(C(=O)/C=C/c2ccc3ccccc3c2)c(O)c(OC)c2occc12 [Compound 22, 1-(6-hydroxy-4,7-dimethoxybenzofuran-5-yl)-3-(naphthalen-2-yl)prop-2-en-1-one]",49.7,25.8,–,–,–
"COc1c(C(=O)/C=C/c2ccc(Br)cc2)c(O)c(OC)c2occc12 [Compound 3, 3-(4,7-dimethoxy-6-hydroxybenzofuran-5-yl)-1-(4-bromophenyl)-3-oxopropene]",–,–,135 to 137,–,–
"COc1c(C(=O)/C=C/c2ccccc2Cl)c(O)c(OC)c2occc12 [Compound 12, 3-(4,7-dimethoxy-6-hydroxybenzofuran-5-yl)-1-(2-chlorophenyl)-3-oxopropene]",23.6,–,160 to 161,19.5,–
"COc1c(C(=O)/C=C/c2ccc(Cl)cc2Cl)c(O)c(OC)c2occc12 [Compound 21, 3-(2,4-dichlorophenyl)-1-(6-hydroxy-4,7-dimethoxybenzofuran-5-yl)prop-2-en-1-one]",> 80,51.4,–,71.4,% inhibition of CYP1A1 in Saccharosomes at 10 μM (CYP1A1 [1]): 80.2%
"COc1c(C(=O)/C=C/c2ccsc2)c(O)c(OC)c2occc12 [Compound 20, 1-(6-hydroxy-4,7-dimethoxybenzofuran-5-yl)-3-(thiophen-3-yl)prop-2-en-1-one]",> 80,> 80,–,79.4,% inhibition of CYP1A1 in Saccharosomes at 10 μM (CYP1A1 [1]): 95.1%; % inhibition of CYP1B1 in Saccharosomes at 10 μM (CYP1B1; 10 µM): 84.0%
"COc1c(C(=O)/C=C/c2ccc(Cl)cc2)c(O)c(OC)c2occc12 [Compound 4, 3-(4,7-dimethoxy-6-hydroxybenzofuran-5-yl)-1-(4-chlorophenyl)-3-oxopropene]",77.5,–,162 to 164,> 80,% inhibition of CYP1A1 in HEK293 cells at 10 μM (CYP1A1 [2]): 85.7%
"COc1c(C(C)=O)c(O)c(OC)c2occc12 [Compound 2, 1-(6-hydroxy-4,7-dimethoxybenzofuran-5-yl)ethanone]",–,–,–,> 80,–
"CCOc1ccc(Br)cc1/C=C/C(=O)c1c(O)c(OC)c2occc2c1OC [Compound 11, 3-(4,7-dimethoxy-6-hydroxybenzofuran-5-yl)-1-(2-ethoxy,5-bromophenyl)-3-oxopropene]",64.3,–,260 to 261,31.7,–
"COc1c(C(=O)/C=C/c2c(Cl)cccc2Cl)c(O)c(OC)c2occc12 [Compound 10, 3-(4,7-dimethoxy-6-hydroxybenzofuran-5-yl)-1-(2,6-dichlorophenyl)-3-oxopropene]",19.6,–,298 to 299,58.8,–
"COc1c(C(=O)/C=C/c2ccc3c(c2)OCO3)c(O)c(OC)c2occc12 [Compound 19, 3-(benzo[d][1,3]dioxol-5-yl)-1-(6-hydroxy-4,7-dimethoxybenzofuran-5-yl)prop-2-en-1-one]",48.4,41.6,–,–,–
"COc1ccc(/C=C/C(=O)c2c(O)c(OC)c3occc3c2OC)cc1 [Compound 9, 3-(4,7-dimethoxy-6-hydroxybenzofuran-5-yl)-1-(4-methoxyphenyl)-3-oxopropene]",28.9,–,198 to 199,55.7,–
"COc1c(C(=O)/C=C/c2ccc(F)cc2F)c(O)c(OC)c2occc12 [Compound 7, 3-(4,7-dimethoxy-6-hydroxybenzofuran-5-yl)-1-(2,4-difluorophenyl)-3-oxopropene]",–,–,154 to 156,> 80,–
"COc1c2occc2c(OC)c2c(=O)cc(C)oc12 [Compound 1, Khellin, reference compound]",88,–,–,–,% inhibition of CYP1A1 in Saccharosomes at 10 μM (CYP1A1 [1]): 88.3%
"COc1cccc(/C=C/C(=O)c2c(O)c(OC)c3occc3c2OC)c1OC [Compound 13, 3-(4,7-dimethoxy-6-hydroxybenzofuran-5-yl)-1-(2,3 dimethoxyphenyl)-3-oxopropene]",–,–,260 to 262,–,–
"COc1c(C(=O)/C=C/c2ccc3cc4ccccc4cc3c2)c(O)c(OC)c2occc12 [Compound 24, 3-(anthracen-2-yl)-1-(6-hydroxy-4,7-dimethoxybenzofuran-5-yl)prop-2-en-1-one]",43.4,19.2,–,–,–
"O=c1cc(-c2ccccc2)oc2c1ccc1ccccc12 [Alpha-naphthoflavone, reference compound]",97,–,–,30,IC50 (CYP1A1 [1]): 90 nM; IC50 (CYP1A1 [2]): > 10000 nM; % inhibition of CYP1B1 in Saccharosomes at 10 μM (CYP1B1): 98%
"COc1c(C(=O)/C=C/c2ccccc2F)c(O)c(OC)c2occc12 [Compound 23, 3-(2-fluorophenyl)-1-(6-hydroxy-4,7-dimethoxybenzofuran-5-yl)prop-2-en-1-one]",41.1,34.2,–,–,–
"COc1c(C(=O)/C=C/c2ccccc2)c(O)c(OC)c2occc12 [Compound 16, 3-(4,7-dimethoxy-6-hydroxybenzofuran-5-yl)-1-(phenyl)-3-oxopropene]",> 80,–,–,> 80,–
"COc1ccc(/C=C/C(=O)c2c(O)c(OC)c3occc3c2OC)cc1Br [Compound 17, 3-(4,7-dimethoxy-6-hydroxybenzofuran-5-yl)-1-(3-bromo-4-methoxyphenyl)-3-oxopropene]",37,–,–,74,–
"COc1cc(OC)c(OC)cc1/C=C/C(=O)c1c(O)c(OC)c2occc2c1OC [Compound 18, 3-(4,7-dimethoxy-6-hydroxybenzofuran-5-yl)-1-(2,4,5-trimethoxyphenyl)-3-oxopropene]",> 80,–,–,> 80,% inhibition of CYP1A1 in Saccharosomes at 10 μM (CYP1A1 [1]): 92.2%; % inhibition of CYP1A1 in HEK293 cells at 10 μM (CYP1A1 [2]): 96.8%
